“Also recorded” adds a separate entry of the source.

Assay [1] relates to PBMC from Mycobacterium bovis-infected white-tailed deer. The assay is classed as cell-based.
Assay [2] deals with white-tailed deer adherent peripheral blood mononuclear cells. As to the kind of experiment: Nitrite production (Griess reaction) by white-tailed deer monocyte-derived macrophages stimulated with M. haemolytica LPS. The assay is classed as cell-based. Particulars: cells stimulated with LPS in the presence of L-NMMA (1.15 mM). As to the method:
Monocytes were isolated from buffy coat fractions of peripheral blood of non-infected deer by adherence in 25 cm^2 flasks at 37° C. for 1 hr. Cells were cultured for 2 wk at 37° C. with 5% CO2 in RPMI 1640 (Gibco, Invitrogen Life Technologies, Frederick, Md., USA) supplemented with L-glutamine, penicillin, streptomycin, 2-ME, 10% heat-inactivated fetal calf serum, and 10% heat-inactivated white-tailed deer serum. Medium was changed every 3-4 days during the culture period. […]
Nitrite is the stable oxidation product of NO and the amount of nitrite within culture supernatants is indicative of the amount of NO produced by cells in culture. Nitrite was measured using the Griess reaction (Rajaraman et al., 1998, Effect of vitamins A and E on nitric oxide production by blood mononuclear leukocytes from neonatal calves fed milk replacer, Journal of Dairy Science, 81:3,278-3,285) performed in 96-well microtiter plates (Immunolon 2, Dynatech Laboratories, Inc., Chantilly, Va., USA). […] Absorbencies of test and standard samples at 550 nm were measured using an automated ELISA plate reader (Molecular Devices, Menlo Park, Calif., USA). […]
Data were analyzed by one-way analysis of variance followed by Tukey-Kramer multiple comparisons test. […]

`CNC(=N)NCCC[C@H](N)C(=O)O` [L-NMMA, N^G-monomethyl-L-arginine]: the “Effect of L-NMMA on antigen-stimulated nitrite production” value in assay [1] is “inhibited; also recorded: ablated this response; also recorded: abrogated”. The “Nitrite levels versus non-stimulated cultures” value in assay [2] was “did not differ”.

The values are drawn from patent US6673566B1 (priority 2002, dated 2004).
